In brackets after ≈: the same amount, converted by molar mass. Like-named read-outs stand apart in the source and are kept apart here.
Assays:
Assay type in all cases: cell-based
[1] = test system: Streptococcus Group D X66; assay: MIC, standard agar-dilution assay, Streptococcus Group D X66
Procedure: (§1) The MIC's in Table II were determined by standard agar-dilution assays. The MIC's in Table III were obtained using conventional broth-dilution microtiter tests.

[2] = test system: Staphylococcus epidermidis 222; assay: MIC, standard agar-dilution assay, S. epidermidis 222
Procedure: as §1

[3] = test system: Staphylococcus aureus S13E; assay: MIC, standard agar-dilution assay, S. aureus S13E
Procedure: as §1

Escherichia coli EC14 = assay: MIC, standard agar-dilution assay, E. coli EC14
Procedure: as §1

[4] = test system: Staphylococcus aureus X400; assay: MIC, standard agar-dilution assay, S. aureus X400
Procedure: as §1

[5] = test system: Streptococcus Group D 2041; assay: MIC, standard agar-dilution assay, Streptococcus Group D 2041; details: GROUPD2041
Procedure: as §1

[6] = test system: Pseudomonas aeruginosa X239; assay: MIC, standard agar-dilution assay, P. aeruginosa X239
Procedure: as §1

[7] = test system: Haemophilus influenzae 76; assay: MIC, standard agar-dilution assay, H. influenzae 76
Procedure: as §1

[8] = test system: Klebsiella pneumoniae X68; assay: MIC, standard agar-dilution assay, K. pneumoniae X68
Procedure: as §1

[9] = test system: Staphylococcus epidermidis EPI1; assay: MIC, standard agar-dilution assay, S. epidermidis EPI1
Procedure: as §1

[10] = test system: Haemophilus influenzae C.L.; assay: MIC, standard agar-dilution assay, H. influenzae C.L.
Procedure: as §1

[11] = test system: Staphylococcus aureus V41; assay: MIC, standard agar-dilution assay, S. aureus V41; details: Staphylococcus aureus, V41
Procedure: as §1

[12] = test system: Staphylococcus aureus X1.1; assay: MIC, standard agar-dilution assay, S. aureus X1.1
Procedure: as §1

[13] = test system: Streptococcus pneumoniae Park I; assay: MIC, standard agar-dilution assay, S. pneumoniae Park I; details: Streptococcus pneumoniae
Procedure: as §1

[14] = test system: Streptococcus pyogenes C203; assay: MIC, standard agar-dilution assay, S. pyogenes C203; details: Streptococcus pyogenes, C203
Procedure: as §1

[15] = agar-dilution, ampicillin-resistant strain, read-out: MIC
[16] = agar-dilution, ampicillin-sensitive strain, read-out: MIC
[17] = agar-dilution, methicillin-resistant strain, read-out: MIC

| SMILES | MIC [1] | MIC [2] | MIC [3] | MIC (Escherichia coli EC14; agar-dilution, read-out: MIC) | MIC [4] | MIC [5] | MIC ([6]; agar-dilution, read-out: MIC) | MIC [7, 15] | MIC ([8]; agar-dilution, read-out: MIC) | MIC [9] | MIC [10, 16] | MIC [11] | MIC [12] | MIC [13] | MIC [14] | MIC [7] | MIC [10] | other results |
| --- | --- | --- | --- | --- | --- | --- | --- | --- | --- | --- | --- | --- | --- | --- | --- | --- | --- | --- |
| CCC1OC(=O)CC(O)C(C)C(OC2OC(C)C(O)C(N(C)C)C2O)C(CCOc2ccccc2)CC(C)C(=O)C=CC(C)=CC1COC1OC(C)/C(=N\OC)C(OC)C1OC (stereo not drawn) [Compound 6, 4"-O-Methoxyimino-20-DH-20-O-phenyl-desmycosin] | 4 µg/mL (≈ 4.56 µM) | 2 µg/mL (≈ 2.28 µM) | 2 µg/mL (≈ 2.28 µM) | > 128 µg/mL | 2 µg/mL (≈ 2.28 µM) | 8 µg/mL (≈ 9.12 µM) | > 128 µg/mL | > 128 µg/mL | > 128 µg/mL | 2 µg/mL (≈ 2.28 µM) | > 128 µg/mL | 2 µg/mL (≈ 2.28 µM) | 2 µg/mL (≈ 2.28 µM) | 1 µg/mL (≈ 1.14 µM) | 4 µg/mL (≈ 4.56 µM) | – | – | – |
| CCC1OC(=O)CC(O)C(C)C(OC2OC(C)C(O)C(N(C)C)C2O)C(CCOc2ccccc2)CC(C)C(=O)C=CC(C)=CC1COC1OC(C)/C(=N/OC)C(OC)C1OC (stereo not drawn) [Compound 7, 4"-O-Methoxyimino-20-DH-20-O-phenyl-desmycosin] | – | 1 µg/mL (≈ 1.14 µM) | 1 µg/mL (≈ 1.14 µM) | > 128 µg/mL | 1 µg/mL (≈ 1.14 µM) | – | > 128 µg/mL | > 128 µg/mL | > 128 µg/mL | 1 µg/mL (≈ 1.14 µM) | > 128 µg/mL | 1 µg/mL (≈ 1.14 µM) | 1 µg/mL (≈ 1.14 µM) | 0.5 µg/mL (≈ 0.57 µM) | – | – | – | MIC ([1]; agar-dilution, read-out: MIC): 2 µg/mL (≈ 2.28 µM); MIC ([5]; agar-dilution, read-out: MIC): 4 µg/mL (≈ 4.56 µM); MIC ([14]; agar-dilution, read-out: MIC): 2 µg/mL (≈ 2.28 µM) |
| CCC1OC(=O)CC(O)C(C)C(OC2OC(C)C(O)C(N(C)C)C2O)C(CCOc2ccccc2)CC(C)C(=O)C=CC(C)=CC1COC1OC(C)C(NCC#N)C(OC)C1OC (stereo not drawn) [Compound 27, 4"-(Cyanomethyl)amino-4"-deoxy-20-DH-20-O-phenyl-desmycosin] | 8 µg/mL (≈ 9.01 µM) | 0.5 µg/mL (≈ 0.563 µM) | 0.5 µg/mL (≈ 0.563 µM) | > 128 µg/mL | 0.5 µg/mL (≈ 0.563 µM) | 16 µg/mL (≈ 18 µM) | > 128 µg/mL | – | > 128 µg/mL | 0.5 µg/mL (≈ 0.563 µM) | – | 1 µg/mL (≈ 1.13 µM) | 0.5 µg/mL (≈ 0.563 µM) | – | – | 8 µg/mL (≈ 9.01 µM) | 4 µg/mL (≈ 4.5 µM) | – |
| CCC1OC(=O)CC(O)C(C)C(OC2OC(C)C(O)C(N(C)C)C2O)C(CCOc2ccccc2)CC(C)C(=O)C=CC(C)=CC1COC1OC(C)C(N(C)CC#N)C(OC)C1OC (stereo not drawn) [Compound 29, 4"-[(Cyanomethyl)methylamino]-4"-deoxy-20-DH-20-O-phenyl-desmycosin] | 32 µg/mL (≈ 35.5 µM) | 2 µg/mL (≈ 2.22 µM) | 2 µg/mL (≈ 2.22 µM) | – | 2 µg/mL (≈ 2.22 µM) | 64 µg/mL (≈ 70.9 µM) | – | – | – | 1 µg/mL (≈ 1.11 µM) | – | 2 µg/mL (≈ 2.22 µM) | 2 µg/mL (≈ 2.22 µM) | – | – | 32 µg/mL (≈ 35.5 µM) | 16 µg/mL (≈ 17.7 µM) | MIC (Escherichia coli EC14): > 128 µg/mL; MIC [6]: > 128 µg/mL; MIC [8]: > 128 µg/mL |
| CCC1OC(=O)CC(O)C(C)C(OC2OC(C)C(O)C(N(C)C)C2O)C(CCOc2ccccc2)CC(C)C(=O)C=CC(C)=CC1COC1OC(C)C(NC)C(OC)C1OC (stereo not drawn) [Compound 31, 4"-Deoxy-20-DH-4"-methylamino-20-O-phenyl-desmycosin] | 2 µg/mL (≈ 2.32 µM) | 0.5 µg/mL (≈ 0.579 µM) | 0.25 µg/mL (≈ 0.29 µM) | > 128 µg/mL | 0.5 µg/mL (≈ 0.579 µM) | 2 µg/mL (≈ 2.32 µM) | > 128 µg/mL | – | > 128 µg/mL | – | – | 0.5 µg/mL (≈ 0.579 µM) | 0.5 µg/mL (≈ 0.579 µM) | – | – | – | 32 µg/mL (≈ 37.1 µM) | MIC ([13]; agar-dilution, read-out: MIC): 0.125 µg/mL (≈ 0.145 µM); MIC ([14]; agar-dilution, read-out: MIC): 0.125 µg/mL (≈ 0.145 µM) |
| CCC1OC(=O)CC(O)C(C)C(OC2OC(C)C(O)C(N(C)C)C2O)C(CCOc2ccccc2)CC(C)C(=O)C=CC(C)=CC1COC1OC(C)C(N(C)C)C(OC)C1OC (stereo not drawn) [Compound 33, 4"-Deoxy-20-DH-4"-dimethylamino-20-O-phenyl-desmycosin] | 32 µg/mL (≈ 36.5 µM) | – | 4 µg/mL (≈ 4.56 µM) | > 128 µg/mL | – | 64 µg/mL (≈ 73 µM) | > 128 µg/mL | – | > 128 µg/mL | – | – | 4 µg/mL (≈ 4.56 µM) | 4 µg/mL (≈ 4.56 µM) | – | – | 64 µg/mL (≈ 73 µM) | 64 µg/mL (≈ 73 µM) | MIC ([2]; agar-dilution, read-out: MIC): 2 µg/mL (≈ 2.28 µM); MIC [4, 17]: 2 µg/mL (≈ 2.28 µM); MIC ([9]; agar-dilution, read-out: MIC): 2 µg/mL (≈ 2.28 µM) |
| CCC1OC(=O)CC(O)C(C)C(OC2OC(C)C(O)C(N(C)C)C2O)C(CCOc2ccccc2)CC(C)C(=O)C=CC(C)=CC1COC1OC(C)C(NC(C)C)C(OC)C1OC (stereo not drawn) [Compound 35, 4"-Deoxy-20-DH-4"-isopropylamino-20-O-phenyldesmycosin] | 64 µg/mL (≈ 71.8 µM) | 8 µg/mL (≈ 8.98 µM) | 16 µg/mL (≈ 18 µM) | > 128 µg/mL | 16 µg/mL (≈ 18 µM) | – | > 128 µg/mL | 128 µg/mL (≈ 144 µM) | > 128 µg/mL | 8 µg/mL (≈ 8.98 µM) | 128 µg/mL (≈ 144 µM) | 16 µg/mL (≈ 18 µM) | 8 µg/mL (≈ 8.98 µM) | – | – | – | – | MIC ([5]; agar-dilution, read-out: MIC): 128 µg/mL (≈ 144 µM) |
| CCCNC1C(C)OC(OCC2C=C(C)C=CC(=O)C(C)CC(CCOc3ccccc3)C(OC3OC(C)C(O)C(N(C)C)C3O)C(C)C(O)CC(=O)OC2CC)C(OC)C1OC (stereo not drawn) [Compound 38, 4"-Deoxy-20-DH-20-O-phenyl-4"-(n-propylamino)desmycosin] | – | 8 µg/mL (≈ 8.98 µM) | 8 µg/mL (≈ 8.98 µM) | > 128 µg/mL | – | 64 µg/mL (≈ 71.8 µM) | > 128 µg/mL | > 128 µg/mL | > 128 µg/mL | – | > 128 µg/mL | – | – | – | 4 µg/mL (≈ 4.49 µM) | – | – | MIC ([1]; agar-dilution, read-out: MIC): 16 µg/mL (≈ 18 µM); MIC [4, 17]: 16 µg/mL (≈ 18 µM); MIC ([9]; agar-dilution, read-out: MIC): 16 µg/mL (≈ 18 µM); MIC ([11]; agar-dilution, penicillin-resistant strain, read-out: MIC): 16 µg/mL (≈ 18 µM); MIC ([12]; agar-dilution, read-out: MIC): 16 µg/mL (≈ 18 µM) |
| CCC1OC(=O)CC(O)C(C)C(OC2OC(C)C(O)C(N(C)C)C2O)C(CCOc2ccccc2)CC(C)C(=O)C=CC(C)=CC1COC1OC(C)C(n2cccc2)C(OC)C1OC (stereo not drawn) [Compound 46, 4"-Deoxy-20-DH-20-O-phenyl-4"-pyrrol-1-yl-desmycosin] | 32 µg/mL (≈ 35.6 µM) | 4 µg/mL (≈ 4.45 µM) | 8 µg/mL (≈ 8.9 µM) | > 128 µg/mL | 8 µg/mL (≈ 8.9 µM) | 64 µg/mL (≈ 71.2 µM) | > 128 µg/mL | > 128 µg/mL | – | 8 µg/mL (≈ 8.9 µM) | > 128 µg/mL | 8 µg/mL (≈ 8.9 µM) | 8 µg/mL (≈ 8.9 µM) | 2 µg/mL (≈ 2.22 µM) | 16 µg/mL (≈ 17.8 µM) | – | – | – |

— patent publication US4920103A, “Modifications of mycinose and 3-O-demethylmycinose in tylosin-type macrolides” (Eli Lilly and Company, priority 1986, dated 1990)
